Test results taken from ChEMBL document CHEMBL4732189, “A facile synthesis of diaryl pyrroles led to the discovery of potent colchicine site antimitotic agents” (Eur J Med Chem, 2021).

Key:
A549 = test: cells; conditions: Homo sapiens, A549, 72 h
Description: Antiproliferative activity against human A549 cells assessed as reduction in cell viability after 72 hrs by MTT assay

SEM cells = test: Antiproliferative activity against human SEM cells assessed as reduction in cell viability after 72 hrs by MTT assay; assay type: functional, cell-based
HT-29 = test: cells; conditions: Homo sapiens, HT-29, 72 h
CCRF-CEM = test: Antiproliferative activity against human CCRF-CEM cells assessed as reduction in cell viability after 72 hrs by MTT assay; assay type: functional, cell-based
HeLa = test: cells; conditions: Homo sapiens, 72 h
Description: Antiproliferative activity against human HeLa cells assessed as reduction in cell viability after 72 hrs by MTT assay

HL-60 = test: Antiproliferative activity against human HL-60 cells assessed as reduction in cell viability after 72 hrs by MTT assay; assay type: functional, cell-based; conditions: HL-60, 72 h
Bos taurus [1] = organism: Bos taurus; test: Displacement of [3H]colchicine from bovine brain tubulin at 0.5 uM by DEAE-cellulose filter method relative to control; assay type: tissue-based
[2] = Inhibition of bovine brain tubulin polymerization incubated for 15 mins followed by GTP addition and measured after 20 mins by spectrophotometric method; assay type: tissue-based, Bos taurus
Bos taurus [3] = organism: Bos taurus; test: Displacement of [3H]colchicine from bovine brain tubulin at 5 uM by DEAE-cellulose filter method relative to control; assay type: tissue-based
HT-1080 = test: Antiproliferative activity against human […] cells assessed as reduction in cell viability after 72 hrs by MTT assay; assay type: functional, cell-based; conditions: HT-1080, 72 h
SGC-7901 = test: Antiproliferative activity against human SGC-7901 cells assessed as reduction in cell viability after 72 hrs by MTT assay; assay type: functional, cell-based; conditions: SGC-7901, 72 h
Tubulin = test: Inhibition of tubulin (unknown origin) polymerization incubated for 90 mins by fluorescence-based assay; assay type: protein-complex assay, Homo sapiens
KB = test: Antiproliferative activity against human KB cells assessed as reduction in cell viability after 72 hrs by MTT assay; assay type: functional, cell-based

SMILES	IC50 (A549) [µM]	IC50 (HT-29) [µM]	IC50 (CCRF-CEM) [µM]	IC50 (HeLa) [µM]	IC50 (HL-60) [µM]	inhibition (Bos taurus [1]) [%]	IC50 [2] [µM]	inhibition (Bos taurus [3]) [%]	IC50 (HT-1080) [µM]	IC50 (SGC-7901) [µM]	IC50 (Tubulin) [µM]	IC50 (KB) [µM]	IC50 (SEM cells) [µM]
COCOc1ccc(-c2c[nH]cc2-c2cc(OC)c(OC)c(OC)c2)cc1	8	> 10	> 10	> 10	> 10	–	–	–	–	–	–	–	> 10
COc1cc(-c2c[nH]cc2-c2cc3ccccc3s2)cc(OC)c1OC	0.228	0.383	0.155	0.043	0.0353	–	–	–	–	–	–	–	0.0373
CCOc1ccc(-c2c[nH]cc2-c2cc(OC)c(OC)c(OC)c2)cc1	0.081	0.042	0.0166	0.037	0.149	80	0.82	92	–	–	–	–	0.0028
COc1ccc(-c2cccn2-c2cc(OC)c(OC)c(OC)c2)cc1F	9.01	4.12	1.71	6.12	0.37	–	2.6	64	–	–	–	–	0.2
COc1cc(-n2cccc2-c2cc(C)c(OC)c(C)c2)cc(OC)c1OC	> 10	> 10	9.11	> 10	> 10	–	–	–	–	–	–	–	7.92
COc1ccc(-c2cccn2-c2cc(OC)c(OC)c(OC)c2)cc1C	> 10	> 10	2.51	9.81	3.93	–	–	–	–	–	–	–	1.01
COc1cc(-c2c[nH]cc2-c2ccc(OC(F)(F)F)cc2)cc(OC)c1OC	4.23	5.46	6.26	5.23	5.95	–	–	–	–	–	–	–	4.79
COc1ccc(-c2c[nH]cc2-c2cc(OC)c(OC)c(OC)c2)cc1	0.088	0.031	0.117	0.028	0.255	–	–	–	–	–	–	–	0.0346
COc1ccc(/C=C\c2cc(OC)c(OC)c(OC)c2)cc1O [COMBRETASTATIN A4]	–	–	0.002	–	–	–	–	–	–	–	–	–	0.005
COc1ccc(-c2c[nH]cc2-c2cc(OC)c(OC)c(OC)c2)cc1Cl	0.243	0.279	0.28	0.297	0.177	–	–	–	–	–	–	–	0.0693
CCSc1ccc(-c2c[nH]cc2-c2cc(OC)c(OC)c(OC)c2)cc1	0.336	0.63	3.07	0.386	2.66	–	–	–	–	–	–	–	0.48
COc1cc(-c2c[nH]cc2-c2ccc3ccccc3c2)cc(OC)c1OC	0.228	0.255	0.0879	0.137	0.054	–	–	–	–	–	–	–	0.032
COc1ccc(-c2cccn2-c2cc(OC)c(OC)c(OC)c2)cc1Cl	> 10	> 10	2.91	9.81	3.22	–	–	–	–	–	–	–	0.55
COc1cc(-n2cccc2-c2cc3ccccc3s2)cc(OC)c1OC	> 10	5.91	2.92	0.95	3.01	–	–	–	–	–	–	–	0.29
COc1cc(-c2c[nH]cc2-c2ccc(C(F)(F)F)cc2)cc(OC)c1OC	0.408	0.865	1.34	0.445	0.933	–	–	–	–	–	–	–	0.343
CCCOc1ccc(-c2c[nH]cc2-c2cc(OC)c(OC)c(OC)c2)cc1	0.683	0.703	4.24	0.37	3.62	–	–	–	–	–	–	–	0.913
COc1ccc(-c2c[nH]cc2-c2cc(OC)c(OC)c(OC)c2)cc1F	0.203	0.048	0.053	0.033	0.0336	–	–	–	–	–	–	–	0.0053
CCOc1ccc(-c2c[nH]cc2-c2cc(OC)c(OC)c(OC)c2)cc1Cl	0.079	0.064	0.153	0.037	0.144	68	0.71	90	–	–	–	–	0.039
COc1cc(-c2c[nH]cc2-c2ccc(C)cc2)cc(OC)c1OC	0.098	0.13	0.047	0.054	0.0317	–	1.2	83	–	–	–	–	0.0172

The next lines start with results.

IC50 (A549) [µM]	IC50 (HT-29) [µM]	IC50 (CCRF-CEM) [µM]	IC50 (HeLa) [µM]	IC50 (HL-60) [µM]	inhibition (Bos taurus [1]) [%]	IC50 [2] [µM]	inhibition (Bos taurus [3]) [%]	IC50 (HT-1080) [µM]	IC50 (SGC-7901) [µM]	IC50 (Tubulin) [µM]	IC50 (KB) [µM]	SMILES	IC50 (SEM cells) [µM]
0.257	0.289	0.226	0.297	0.164	–	–	–	–	–	–	–	CCc1ccc(-c2c[nH]cc2-c2cc(OC)c(OC)c(OC)c2)cc1	0.048
> 10	> 10	3.51	> 10	4.01	–	–	–	–	–	–	–	COc1cc(-c2cccn2-c2ccc(C)c(C)c2)cc(OC)c1OC	2.01
> 10	9.42	4.63	3.91	3.72	–	–	–	–	–	–	–	CCSc1ccc(-c2cccn2-c2cc(OC)c(OC)c(OC)c2)cc1	1.55
> 10	> 10	4.91	> 10	> 10	–	–	–	–	–	–	–	CCCc1ccc(-c2cccn2-c2cc(OC)c(OC)c(OC)c2)cc1	> 10
5.52	0.84	1.41	0.43	0.4	–	1.6	70	–	–	–	–	COc1cc(-c2cccn2-c2ccc3ccccc3c2)cc(OC)c1OC	0.19
> 10	7.12	3.91	5.61	2.62	–	–	–	–	–	–	–	COc1cc(-c2cccn2-c2ccc(N(C)C)cc2)cc(OC)c1OC	0.61
> 10	> 10	2.81	> 10	3.62	–	–	–	–	–	–	–	COc1cc(-c2cccn2-c2cc(OC)c(OC)c(OC)c2)ccc1C	2.31
> 10	> 10	2.81	> 10	0.81	–	–	–	–	–	–	–	COc1cc(-n2cccc2-c2ccc(SC)cc2)cc(OC)c1OC	0.2
> 10	7.81	3.2	3.28	4.01	–	–	–	–	–	–	–	COc1cc(-n2cccc2-c2ccc(C)c(C)c2)cc(OC)c1OC	0.75
3.1	0.65	1.31	0.41	0.4	–	1.6	74	–	–	–	–	COc1cc(-n2cccc2-c2ccc3ccccc3c2)cc(OC)c1OC	0.15
4.52	0.39	1.91	0.39	0.36	–	5.6	63	–	–	–	–	CCOc1ccc(-c2cccn2-c2cc(OC)c(OC)c(OC)c2)cc1	0.14
> 10	> 10	8.61	> 10	> 10	–	–	–	–	–	–	–	COc1cc(-c2cccn2-c2cccc3ccccc23)cc(OC)c1OC	7.12
8.4	0.73	2.92	0.35	0.39	–	1.3	68	–	–	–	–	CCOc1ccc(-c2cccn2-c2cc(OC)c(OC)c(OC)c2)cc1Cl	0.1
> 10	5.22	2.41	3.31	0.63	–	2.4	55	–	–	–	–	COc1cc(-c2cccn2-c2ccc(C)cc2)cc(OC)c1OC	0.14
> 10	8.34	4.31	> 10	3.61	–	–	–	–	–	–	–	CCc1ccc(-n2cccc2-c2cc(OC)c(OC)c(OC)c2)cc1	1.33
> 10	5.52	3.02	3.42	0.43	–	2.3	57	–	–	–	–	CCOc1ccc(-n2cccc2-c2cc(OC)c(OC)c(OC)c2)cc1	0.27
> 10	2.12	2.51	1.92	0.47	–	–	–	–	–	–	–	COc1ccc(-c2cccn2-c2cc(OC)c(OC)c(OC)c2)cc1	0.15
9.62	3.91	2.43	3.22	0.35	–	1.6	60	–	–	–	–	COc1cc(-n2cccc2-c2ccc(C)cc2)cc(OC)c1OC	0.27
> 10	5.44	3.01	9.92	1.13	–	–	–	–	–	–	–	CCc1ccc(-c2cccn2-c2cc(OC)c(OC)c(OC)c2)cc1	0.31
> 10	> 10	5.01	> 10	3.11	–	–	–	–	–	–	–	COc1cccc(-n2cccc2-c2cc(OC)c(OC)c(OC)c2)c1	2.01
–	–	–	–	–	–	–	–	0.07	0.39	10	0.045	COc1ccc(-n2cccc2-c2cc(OC)c(OC)c(OC)c2)cc1N	–
